Reference: US7932262B2 (Novartis AG, priority 2006, dated 2011)
Where two headings read alike, the source gives them in different places.

Experiments:
PDK1 kinase = target: T1, PDK1 kinase (Homo sapiens, UniProt O15530); assay: PDK1 Kinase Alpha Screen Assay; format: biochemical
T1 sequence (O15530 1-556): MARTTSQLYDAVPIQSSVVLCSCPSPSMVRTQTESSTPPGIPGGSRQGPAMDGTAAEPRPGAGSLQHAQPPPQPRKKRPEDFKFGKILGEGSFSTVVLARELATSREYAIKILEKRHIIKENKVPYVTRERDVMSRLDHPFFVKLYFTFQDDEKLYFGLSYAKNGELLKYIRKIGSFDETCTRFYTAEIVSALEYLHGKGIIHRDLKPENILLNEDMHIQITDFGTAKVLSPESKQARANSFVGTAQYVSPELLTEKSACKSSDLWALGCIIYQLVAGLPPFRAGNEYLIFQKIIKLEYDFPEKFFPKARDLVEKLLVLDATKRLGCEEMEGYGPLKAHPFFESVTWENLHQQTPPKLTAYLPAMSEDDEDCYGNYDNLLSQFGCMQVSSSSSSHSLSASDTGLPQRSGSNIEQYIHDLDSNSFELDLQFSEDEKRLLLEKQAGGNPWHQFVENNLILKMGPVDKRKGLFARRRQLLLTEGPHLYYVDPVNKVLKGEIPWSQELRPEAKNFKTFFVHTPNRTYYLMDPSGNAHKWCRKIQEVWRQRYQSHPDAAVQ
Procedure, shortened: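 Compound in DMSO added to PDK1-4 peptide; PDK1/ATP mix starts reaction (final 50 nM peptide, 10 uM ATP). Runs 3-18 hours, stopped with 90 mM EDTA buffer. Antibody/bead mix added, developed overnight at room temperature, then AlphaScreen signal read.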

PC-3 cells = assay: Cell Proliferation Assay (Cell Titer Glo), PC-3 cell line; format: cell-based; conditions: Homo sapiens, read-out: CPEC50 PC3
Procedure, shortened: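 PC-3 cells, 1000 cells/well, left to adhere 3-5 h, then exposed for 3 days at 37° C to compounds as 1:3 serial dilutions from 500× DMSO stocks diluted in growth medium. Medium then replaced with fresh medium and viability read by Cell Titer Glo luminescence.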

[1] = PDK1 Kinase Alpha Screen Assay, read-out: PDK1 IC50
[2] = PC-3, Cell Proliferation Assay, PC3

SMILES	IC50 (PDK1 kinase; [1]) [µM]	EC50 (PC-3 cells; [2]) [µM]	IC50 (PDK1 kinase; read-out: PDK1 IC50) [µM]	EC50 (PC-3 cells; PC-3, PC3 cells) [µM]	IC50 (PDK1 kinase; head of the second part of Table 4: BV11261, read-out: PDK1 BV11261) [µM]
Cc1ccc(OC2CCNCC2)c2nc(Nc3ccc(S(=O)(=O)N4CCOCC4)cc3)ncc12 [Compound 367, 5-methyl-N-(4-(morpholinosulfonyl)phenyl)-8-(piperidin-4-yloxy)quinazolin-2-amine]	< 5	5 to 10	–	–	–
CC(C)N1CCC(Oc2cccc3cnc(Nc4cccc(C#N)c4)nc23)CC1 [Compound 530, 3-(8-(1-isopropylpiperidin-4-yloxy)quinazolin-2-ylamino)benzonitrile]	< 5	< 5	–	–	–
CN1CCN(c2ccc(Nc3ncc4cccc(OC5CCNCC5)c4n3)cc2)CC1 [Compound 548, N-(4-(4-methylpiperazin-1-yl)phenyl)-8-(piperidin-4-yloxy)quinazolin-2-amine]	< 5	< 5	–	–	–
CN(C)[C@H]1CCN(Cc2cccc3cnc(Nc4ccc(S(N)(=O)=O)cc4)nc23)C1 [Compound 936, (S)-4-(8-((3-(dimethylamino)pyrrolidin-1-yl)methyl)quinazolin-2-ylamino)benzenesulfonamide]	–	–	< 5	< 5	–
Fc1cc(Nc2ncc3cccc(C4=CCNCC4)c3n2)ccc1N1CCOCC1 [Compound 460, N-(3-fluoro-4-morpholinophenyl)-8-(1,2,3,6-tetrahydropyridin-4-yl)quinazolin-2-amine]	< 5	< 5	–	–	–
Fc1cc(Nc2ncc3c(Br)ccc(OC4CCNCC4)c3n2)ccc1N1CCOCC1 [Compound 339, 5-bromo-N-(3-fluoro-4-morpholinophenyl)-8-(piperidin-4-yloxy)quinazolin-2-amine]	< 5	< 5	–	–	–
c1cc(OC2CCNCC2)c2nc(Nc3ccc(N4CCOCC4)cc3)ncc2c1 [Compound 546, N-(4-morpholinophenyl)-8-(piperidin-4-yloxy)quinazolin-2-amine]	< 5	< 5	–	–	–
Cn1cc(-c2cccc3cnc(Nc4ccc(S(N)(=O)=O)cc4)nc23)cn1 [Compound 931, 4-(8-(1-methyl-1H-pyrazol-4-yl)quinazolin-2-ylamino)benzenesulfonamide]	–	–	< 5	5 to 10	–
O=C(c1ccc(Nc2ncc3c(Cl)ccc(NC4CCNCC4)c3n2)cc1)N1CCOCC1 [Compound 693, (4-(5-chloro-8-(piperidin-4-ylamino)quinazolin-2-ylamino)phenyl)(morpholino)methanone]	< 5	< 5	–	–	–
COc1cc(S(N)(=O)=O)c(OC)cc1Nc1ncc2ccc(OC3CCNCC3)cc2n1 [Compound 321, 2,5-dimethoxy-4-(7-(piperidin-4-yloxy)quinazolin-2-ylamino)benzenesulfonamide]	< 5	5 to 10	–	–	–
c1cc(-c2ccc(NCCN3CCCC3)nc2)c2nc(Nc3ccc(N4CCOCC4)nc3)ncc2c1 [Compound 424, N-(6-morpholinopyridin-3-yl)-8-(6-(2-(pyrrolidin-1-yl)ethylamino)pyridin-3-yl)quinazolin-2-amine]	< 5	< 5	–	–	–
C#Cc1cc2cnc(Nc3ccc(C(=O)NC(C)C)cc3)nc2cc1OC1CCN(C(C)C)CC1 [Compound 636, 4-(6-ethynyl-7-(1-isopropylpiperidin-4-yloxy)quinazolin-2-ylamino)-N-isopropylbenzamide]	< 5	< 5	–	–	–
c1cc(N2CCOCC2)ccc1Nc1ncc2ccc(OC3CCNCC3)cc2n1 [Compound 614, N-(4-morpholinophenyl)-7-(piperidin-4-yloxy)quinazolin-2-amine]	< 5	< 5	–	–	–
Clc1cccc(Nc2ncc3cccc(-c4ccc(NCCN5CCCC5)nc4)c3n2)c1 [Compound 398, N-(3-chlorophenyl)-8-(6-(2-(pyrrolidin-1-yl)ethylamino)pyridin-3-yl)quinazolin-2-amine]	< 5	< 5	–	–	–
FC(F)(F)c1cccc(Nc2ncc3cccc(-c4ccc(NCCN5CCCC5)nc4)c3n2)c1 [Compound 1023, 8-(6-(2-(pyrrolidin-1-yl)ethylamino)pyridin-3-yl)-N-(3-(trifluoromethyl)phenyl)quinazolin-2-amine]	–	–	< 5	< 5	–
CN1CCC(NC(=O)c2cncc(-c3cccc4cnc(Nc5ccc(S(N)(=O)=O)cc5)nc34)c2)CC1 [Compound 981, N-(1-methylpiperidin-4-yl)-5-(2-(4-sulfamoylphenylamino)quinazolin-8-yl)nicotinamide]	–	–	< 5	5 to 10	–

SMILES	IC50 (PDK1 kinase; [1]) [µM]	EC50 (PC-3 cells; [2]) [µM]	IC50 (PDK1 kinase; read-out: PDK1 IC50) [µM]	EC50 (PC-3 cells; PC-3, PC3 cells) [µM]	IC50 (PDK1 kinase; head of the second part of Table 4: BV11261, read-out: PDK1 BV11261) [µM]
COc1c(-c2cnn(C)c2)cc(Cl)c2cnc(Nc3ccc(N4CCOCC4)cc3)nc12 [Compound 1035, 5-chloro-8-methoxy-7-(1-methyl-1H-pyrazol-4-yl)-N-(4-morpholinophenyl)quinazolin-2-amine]	–	–	–	< 5	< 5
Fc1cccc(Nc2ncc3c(Cl)ccc(OC4CCNCC4)c3n2)c1 [Compound 600, 5-chloro-N-(3-fluorophenyl)-8-(piperidin-4-yloxy)quinazolin-2-amine]	< 5	< 5	–	–	–
Fc1ccc(Nc2ncc3cccc(-c4ccc(NCCN5CCCC5)nc4)c3n2)cc1 [Compound 994, N-(4-fluorophenyl)-8-(6-(2-(pyrrolidin-1-yl)ethylamino)pyridin-3-yl)quinazolin-2-amine]	–	–	< 5	< 5	–
Fc1ccc(Nc2ncc3cccc(OC4CCNCC4)c3n2)cc1C1=CCNCC1 [Compound 487, N-(4-fluoro-3-(1,2,3,6-tetrahydropyridin-4-yl)phenyl)-8-(piperidin-4-yloxy)quinazolin-2-amine]	< 5	< 5	–	–	–
c1ncc(-c2ccc(Nc3ncc4ccc(OC5CCNCC5)cc4n3)cc2)o1 [Compound 584, N-(4-(oxazol-5-yl)phenyl)-7-(piperidin-4-yloxy)qinazolin-2-amine]	< 5	< 5	–	–	–
C#Cc1cc(OC2CCNCC2)c2nc(Nc3ccc(N4CCOCC4)cc3)ncc2c1 [Compound 700, 6-ethynyl-N-(4-morpholinophenyl)-8-(piperidin-4-yloxy)quinazolin-2-amine]	< 5	< 5	–	–	–
CN1CCN(c2ccc(-c3cccc4cnc(Nc5ccc(N6CCOCC6)c(F)c5)nc34)cn2)CC1 [Compound 432, N-(3-fluoro-4-morpholinophenyl)-8-(6-(4-methylpiperazin-1-yl)pyridin-3-yl)quinazolin-2-amine]	< 5	< 5	–	–	–
O=C(c1ccc(Nc2ncc3cccc(OC4CCNCC4)c3n2)cc1)N1CCOCC1 [Compound 538, morpholino(4-(8-(piperidin-4-yloxy)quinazolin-2-ylamino)phenyl)methanone]	< 5	< 5	–	–	–
CC(C)N1CCN(c2ccc(-c3cccc4cnc(Nc5ccc(S(N)(=O)=O)cc5)nc34)cn2)CC1 [Compound 956, 4-(8-(6-(4-isopropylpiperazin-1-yl)pyridin-3-yl)quinazolin-2-ylamino)benzenesulfonamide]	–	–	< 5	< 5	–
CN1CCC(CNC(=O)c2cncc(-c3cccc4cnc(Nc5ccc(S(N)(=O)=O)cc5)nc34)c2)CC1 [Compound 982, N-((1-methylpiperidin-4-yl)methyl)-5-(2-(4-sulfamoylphenylamino)quinazolin-8-yl)nicotinamide]	–	–	< 5	5 to 10	–
CC(C)Cn1cc(-c2ccc3cnc(Nc4ccc(N5CCN(C)CC5)cc4)nc3c2)cn1 [Compound 1025, 7-(1-isobutyl-1H-pyrazol-4-yl)-N-(4-(4-methylpiperazin-1-yl)phenyl)quinazolin-2-amine]	–	–	< 5	< 5	–
Cn1cc(-c2ccc3cnc(Nc4ccc(S(N)(=O)=O)cc4)nc3c2-c2ccc(NCCN3CCCC3)nc2)cn1 [Compound 945, 4-(7-(1-methyl-1H-pyrazol-4-yl)-8-(6-(2-(pyrrolidin-1-yl)ethylamino)pyridin-3-yl)quinazolin-2-ylamino)benzenesulfonamide]	–	–	< 5	< 5	–
O=C(O)c1cc(Nc2ncc3cccc(OC4CCNCC4)c3n2)ccc1F [Compound 472, 2-fluoro-5-(8-(piperidin-4-yloxy)quinazolin-2-ylamino)benzoic acid]	< 5	5 to 10	–	–	–
O=C(NC1CCOCC1)c1cc(Nc2ncc3cccc(OC4CCNCC4)c3n2)ccc1F [Compound 476, 2-fluoro-5-(8-(piperidin-4-yloxy)quinazolin-2-ylamino)-N-(tetrahydro-2H-pyran-4-yl)benzamide]	< 5	< 5	–	–	–
O=C(NC1CC1)c1ccc(Nc2ncc3cccc(OC4CCNCC4)c3n2)cc1F [Compound 444, N-cyclopropyl-2-fluoro-4-(8-(piperidin-4-yloxy)quinazolin-2-ylamino)benzamide]	< 5	< 5	–	–	–
